Values quoted from earlier work in patent US20070275092A1, “Therapeutic composition supporting the immune system” (priority 2005, published 2007).

Conditions: per day

## [Zn] [zinc]
  dosage well tolerated but with potential side effects such as anemia (attributable to copper deficiency): 200 mg
